# Reference: patent US20220211678A1, “USES OF (+)-A-DIHYDROTETRABENAZINE IN METHODS OF TREATING MOVEMENT DISORDER” (ADEPTIO PHARMACEUTICALS LIMITED, priority 2017, published 2022)
# Read-outs that look alike come from different tables or passages of the source.
# Assays:
# [1] = rats, administration of tetrabenazine or dihydrotetrabenazine; stereochemistry not disclosed; cited from earlier work
# [2] = oral administration of tetrabenazine, four patients affected by tardive dyskinesia; cited from earlier work
# [3] = oral administration of tetrabenazine, patients treated for involuntary movement disorders; cited from earlier work
# amphetamine-induced rats = experiment: Amphetamine-induced locomotor activity and stereotypic behaviour, open field arena (Example 2, Studies 1, 2, 4); format: in vivo, rat; conditions: for normalised total stereotypic behaviour, compared to vehicle-amphetamine group / total distance travelled, compared to vehicle-amphetamine group: amphetamine at t=30 min; for locomotor activity compared to the vehicle-amphetamine group (conclusion) / stereotypic behaviour compared to the vehicle-amphetamine group (conclusion): risperidone 1 mg/kg
# Excerpt: Dopaminergic models for Tourette's syndrome use systemic or focal administration of dopamine agonists such as amphetamine. After injection with amphetamine, a test animal expresses stereotypic behaviour. In particular, involvement of a dopaminergic system implicated in Tourette's syndrome wild type mice and rats can be stimulated with amphetamine and the resulting hyperactivity and stereotypies can be reversed with dopamine antagonists such as risperidone and haloperidol (Tourette's syndrome—Animal Models for Screening, Charles River Discovery Research Services, Finland).
# (§1) All animal experiments were carried out according to the National Institute of Health (NIH) guidelines for the care and use of laboratory animals, and approved by the National Animal Experiment Board, Finland. Male CD (Charles River Laboratories, Germany) at weight range of 200-250 g (165-200 g upon arrival) were used for the experiments. Animals were housed at a standard temperature (22±1° C.) and in a light-controlled environment (lights on from 7 am to 8 pm) with ad libitum access to food and water.
# (§2) Locomotor activity of the rats was tested in open field arena. The open field test was performed during the rat light cycle and under a normal lighting evenly distributed to the test chambers. The paths of the rats were recorded by activity monitor (Med. Associates Inc.).
# (§3) Dosing the vehicle, vehicle-amphetamine, (+)-α-DHTBZ or risperidone was done prior to LMA test. The rats were placed in the centre of the arena, and the path was recorded for 60 minutes.
# (§4) Animals were grouped as follows: • Group 1: 10 rats treated with Vehicle (t=0 min) and Vehicle (t=30 min) • Group 2: 10 rats treated with Vehicle (t=0 min) and Amphetamine (t=30 min) • Group 3: 10 rats treated with (+)-α-DHTBZ 0.5 mg/kg (t=0 min) and Amphetamine (t=30 min) • Group 4: 10 rats treated with (+)-α-DHTBZ 1 mg/kg (t=0 min) and Amphetamine (t=30 min) • Group 5: 10 rats treated with (+)-α-DHTBZ 1.5 mg/kg (t=0 min) and Amphetamine (t=30 min) • Group 6: 10 rats treated with (+)-α-DHTBZ 2 mg/kg (t=0 min) and Amphetamine (t=30 min) • Group 7: 10 rats treated with risperidone 1 mg/kg (t=0 min) and Amphetamine (t=30 min)
# (§5) Rats dosed with either vehicle, (+)-α-DHTBZ 0.5 mg/kg, (+)-α-DHTBZ 1 mg/kg, (+)-α-DHTBZ 1.5 mg/kg, (+)-α-DHTBZ 2 mg/kg or Risperidone 1 mg/kg were subjected to LMA testing first for 30 min and then for 60 minutes after vehicle or amphetamine challenge. Resulting locomotor activity was evaluated in 3 min bins and as a total over the testing period.
# as §5, with “stereotypic” for “locomotor”
# Animals were grouped as follows: • Group 1: 10 rats treated with Vehicle (t=0 min) and Vehicle (t=30 min) • Group 2: 10 rats treated with Vehicle (t=0 min) and Amphetamine (t=30 min) • Group 3: 10 rats treated with (+)-α-DHTBZ 0.1 mg/kg (t=0 min) and Amphetamine (t=30 min) • Group 4: 10 rats treated with (+)-α-DHTBZ 0.25 mg/kg (t=0 min) and Amphetamine (t=30 min) • Group 5: 10 rats treated with risperidone 1 mg/kg (t=0 min) and Amphetamine (t=30 min)
# as §4, with “(+)-α-DHTBZ 1” for “(+)-α-DHTBZ 0.5”, “(+)-α-DHTBZ 1.5” for “(+)-α-DHTBZ 1”, “with Valbenazine 1” for “with (+)-α-DHTBZ 1.5”, “with Valbenazine 1.5” for “with (+)-α-DHTBZ 2”
# [4] = tested on: non-amphetamine induced rats; experiment: Locomotor activity and stereotypic behaviour in non-amphetamine induced rats, open field arena (Example 2, Study 3); format: in vivo, rat; conditions: Study 3, non-induced rats; (+)-α-DHTBZ 2.5 mg/kg or 5 mg/kg, risperidone 1 mg/kg
# Method: as §1, §2, §3
# Animals were grouped as follows: • Group 1: 10 rats treated with Vehicle • Group 2: 10 rats treated with (+)-α-DHTBZ 2.5 mg/kg • Group 3: 10 rats treated with (+)-α-DHTBZ 5 mg/kg • Group 4: 10 rats treated with risperidone 1 mg/kg
# [5] = tested on: patients suffering from tardive dyskinesia; conditions: cited from earlier work
# [6] = tested on: Tardive Dyskinesia sufferers; conditions: 80 mg/day; cited from earlier work
# [7] = Study 1, (+)-α-DHTBZ at all the tested doses (0.5, 1, 1.5, 2 mg/kg)
smiles,measurement,setting,value
"COc1cc2c(cc1OC)C1CC(O)C(CC(C)C)CN1CC2 (stereo not drawn) [dihydrotetrabenazine, 2-hydroxy-3-(2-methylpropyl)-1,3,4,6,7,11b-hexahydro-9,10-dimethoxy-benzo(a)quinolizine]",crossing of the blood-brain barrier,[1],able to cross the blood-brain barrier
same,plasma concentrations,[2],relatively high concentrations
"COc1cc2c(cc1OC)C1CC(=O)C(CC(C)C)CN1CC2 (stereo not drawn) [tetrabenazine, 1,3,4,6,7,11b-hexahydro-9,10-dimethoxy-3-(2-methylpropyl)-2H-benzo(a)quinolizin-2-one]",plasma concentrations,[2],low plasma concentrations
same,plasma concentrations,[3],very low plasma concentrations
"Cc1nc2n(c(=O)c1CCN1CCC(c3noc4cc(F)ccc34)CC1)CCCC2 [risperidone, reference compound]","normalised total stereotypic behaviour, compared to vehicle-amphetamine group","amphetamine-induced rats; Study 1, 1 mg/kg",significantly different
same,locomotor activity compared to the vehicle-amphetamine group (conclusion),amphetamine-induced rats; [7],lower locomotor activity
same,stereotypic behaviour compared to the vehicle-amphetamine group (conclusion),amphetamine-induced rats; [7],reduced stereotypic behaviour
same,"normalised total stereotypic behaviour, compared to vehicle-amphetamine group","amphetamine-induced rats; Study 2, 1 mg/kg",significantly different
same,locomotor activity compared to the vehicle-amphetamine group (conclusion),"amphetamine-induced rats; Study 2, (+)-α-DHTBZ at 0.25 mg/kg",lower locomotor activity
same,stereotypic behaviour compared to the vehicle-amphetamine group (conclusion),"amphetamine-induced rats; Study 2, (+)-α-DHTBZ at both the tested doses (0.1, 0.25 mg/kg)",reduced stereotypic behaviour
same,"normalised total stereotypic behaviour, compared to vehicle-amphetamine group","amphetamine-induced rats; Study 4, 1 mg/kg",significantly different
same,"total distance travelled, compared to vehicle-amphetamine group","amphetamine-induced rats; Study 4, 1 mg/kg",significantly different
same,total movement compared to rats treated with the vehicle,[4],reduced total movement
same,total stereotypic behaviour compared to rats treated with the vehicle,[4],reduced total stereotypic behaviour
"COc1cc2c(cc1OC)[C@H]1C[C@@H](OC(=O)[C@@H](N)C(C)C)[C@H](CC(C)C)CN1CC2 [Valbenazine, reference compound]","normalised total stereotypic behaviour, compared to vehicle-amphetamine group","amphetamine-induced rats; Study 4, 1 mg/kg",significantly different
same,"total distance travelled, compared to vehicle-amphetamine group","amphetamine-induced rats; Study 4, 1 mg/kg",significantly different
same,"normalised total stereotypic behaviour, compared to vehicle-amphetamine group","amphetamine-induced rats; Study 4, 1.5 mg/kg",significantly different
same,"total distance travelled, compared to vehicle-amphetamine group","amphetamine-induced rats; Study 4, 1.5 mg/kg",significantly different
same,symptoms scored with the abnormal involuntary movement scale (AIMS),[5]; 50 mg/day,did not show any significant signs of improvement
same,symptoms scored with the abnormal involuntary movement scale (AIMS),[5]; 100 mg/day,some reduction of symptoms
same,Abnormal Involuntary Movement Score,[6],significant improvement
